Test results: ChEMBL document CHEMBL1201862, “PubChem BioAssay data set” (2004)
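96-well plates; 48 h exposure; 5 concentrations. Endpoints by linear interpolation between flanking doses. Not reached: highest tested concentration assigned. The concentration for 50% growth inhibition is given as GI50.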 Calls of active or inactive are those of the source. Cut-off read from the data, not from the text of the source: active = GI50 up to about 1.1 µM and inactive = higher.

How the values were obtained:
Assay in all cases: NCI-60 cell line screen, 48 h
IGROV-1 = tested on: IGROV-1
HL-60 = tested on: HL-60
OVCAR-8 = tested on: OVCAR-8
SK-OV-3 = tested on: SK-OV-3
MOLT-4 = tested on: MOLT-4
HOP-62 = tested on: HOP-62
SNB-19 = tested on: SNB-19
Malme-3M = tested on: Malme-3M
MDA-MB-231 = tested on: MDA-MB-231
HCT-15 = tested on: HCT-15
UACC-62 = tested on: UACC-62
TK-10 = tested on: TK-10
SNB-75 = tested on: SNB-75
A498 = tested on: A498
HCC 2998 = tested on: HCC 2998
SF-268 = tested on: SF-268
MDA-MB-435 = tested on: MDA-MB-435
MDA-N = tested on: MDA-N
CAKI-1 = tested on: CAKI-1

Structure (SMILES) | GI50 (IGROV-1) | GI50 (HL-60) | GI50 (OVCAR-8) | GI50 (SK-OV-3) | GI50 (MOLT-4) | GI50 (HOP-62) | GI50 (SNB-19) | GI50 (Malme-3M) | GI50 (MDA-MB-231) | GI50 (HCT-15) | GI50 (UACC-62) | GI50 (TK-10) | GI50 (SNB-75) | GI50 (A498) | GI50 (HCC 2998) | GI50 (SF-268) | GI50 (MDA-MB-435) | GI50 (MDA-N) | GI50 (CAKI-1)
CCCc1c(Cl)nc(Cl)nc1Cl | 0.787 µM (active) | 0.48 µM (active) | 1.05 µM (active) | > 100 µM (inactive) | 0.0429 µM (active) | 2.43 µM (inactive) | 4.71 µM (inactive) | < 0.0208 µM (active) | 0.425 µM (active) | 0.327 µM | 0.822 µM (active) | 3.44 µM (inactive) | 9.18 µM (inactive) | 19.5 µM (inactive) | 5.55 µM (inactive) | 1.29 µM (inactive) | 0.471 µM (active) | 0.211 µM (active) | 
O=CC(O)C(O)C1OC(=O)c2cc(O)c(O)c(O)c2C2=C(O)C(O)=C3OC(=O)c4c(c(O)c(O)c5c4C3C2C(=O)O5)-c2c(cc(O)c(O)c2O)C(=O)OCC1O (stereo not given) | 51.6 µM (inactive) | 12.3 µM (inactive) | 20.1 µM (inactive) | 25.9 µM (inactive) | 20.7 µM (inactive) | 72.6 µM (inactive) | 57.8 µM (inactive) | 81.8 µM (inactive) | 19.1 µM (inactive) | 20.3 µM | 29.2 µM (inactive) |  | 27.4 µM (inactive) | 44.9 µM (inactive) | 24.8 µM (inactive) | 28.4 µM (inactive) | 16.5 µM (inactive) | 19 µM (inactive) | 18.1 µM (inactive)
Cc1ccc(S(=O)(=O)N2CCC[C@@H]2C(=O)O[C@@H]2CCC3CC=CC32)cc1 (stereo not given in full) | 39.9 µM (inactive) | 11.5 µM (inactive) | 34.4 µM (inactive) | 22.2 µM (inactive) | 17.6 µM (inactive) | 29.9 µM (inactive) | 34.4 µM (inactive) | 24.5 µM (inactive) | 45.9 µM (inactive) | 32.7 µM | 27.9 µM (inactive) | 42.5 µM (inactive) | 26.1 µM (inactive) | 24.8 µM (inactive) | 31.5 µM (inactive) | 15.1 µM (inactive) | 35.1 µM (inactive) | 29.2 µM (inactive) | 
CC1(c2ccccc2)N=c2[nH]cnc2=C(C(N)=O)N1 (stereo not given) | > 100 µM (inactive) | > 100 µM (inactive) | > 100 µM (inactive) | > 100 µM (inactive) |  | > 100 µM (inactive) | > 100 µM (inactive) | > 100 µM (inactive) | > 100 µM (inactive) | > 100 µM | > 100 µM (inactive) | > 100 µM (inactive) | > 100 µM (inactive) | > 100 µM (inactive) | > 100 µM (inactive) | > 100 µM (inactive) | > 100 µM (inactive) | > 100 µM (inactive) | > 100 µM (inactive)
CCCCCC(=O)CCCCCCCC(O)CC(=O)OCC (stereo not given) | > 100 µM (inactive) | 48.9 µM (inactive) | > 100 µM (inactive) |  | > 100 µM (inactive) | > 100 µM (inactive) | > 100 µM (inactive) | > 100 µM (inactive) | > 100 µM (inactive) | > 100 µM |  | > 100 µM (inactive) |  | > 100 µM (inactive) | > 100 µM (inactive) | > 100 µM (inactive) | > 100 µM (inactive) | > 100 µM (inactive) | > 100 µM (inactive)
CC[C@]1(Cc2ccc(OC)c(OC)c2)C=[N+]([O-])O[C@H](OC2CCCCC2c2ccccc2)[C@@H]1OC(C)=O (stereo not given in full) | 39.4 µM (inactive) | 18.1 µM (inactive) | 50.6 µM (inactive) | 84.9 µM (inactive) | 17.3 µM (inactive) | 64.6 µM (inactive) | 92.5 µM (inactive) | 52.8 µM (inactive) | 75.3 µM (inactive) | 37.2 µM | 56.1 µM (inactive) | > 100 µM (inactive) | 32.2 µM (inactive) | > 100 µM (inactive) | 43.5 µM (inactive) |  | 50.6 µM (inactive) | 53.5 µM (inactive) | 21.2 µM (inactive)
Cc1cc(C)n(C(C)(C(=O)Cc2ccccc2)n2nc(C)cc2C)n1 | > 100 µM (inactive) | > 100 µM (inactive) | > 100 µM (inactive) | > 100 µM (inactive) | > 100 µM (inactive) | > 100 µM (inactive) | > 100 µM (inactive) | > 100 µM (inactive) | > 100 µM (inactive) | > 100 µM | > 100 µM (inactive) | > 100 µM (inactive) |  | > 100 µM (inactive) | > 100 µM (inactive) | > 100 µM (inactive) | > 100 µM (inactive) | > 100 µM (inactive) | > 100 µM (inactive)
O=C1C=C(N2CCN(c3ncccn3)CC2)C(=O)c2c(O)ccc(O)c21 | > 100 µM (inactive) | > 100 µM (inactive) | > 100 µM (inactive) | > 100 µM (inactive) | > 100 µM (inactive) | 49.2 µM (inactive) | > 100 µM (inactive) | 6.35 µM (inactive) | > 100 µM (inactive) | > 100 µM | 16.2 µM (inactive) | > 100 µM (inactive) |  | > 100 µM (inactive) | > 100 µM (inactive) | > 100 µM (inactive) | 7.21 µM (inactive) | 14.5 µM (inactive) | > 100 µM (inactive)
CN/N=C(\C)C(CN(C)C)C(c1ccccc1)c1c(O)c2ccccc2oc1=O (stereo not given) | > 100 µM (inactive) | 29.7 µM (inactive) | > 100 µM (inactive) |  | 75.5 µM (inactive) | > 100 µM (inactive) | > 100 µM (inactive) | 78.9 µM (inactive) | > 100 µM (inactive) | > 100 µM | 31.3 µM (inactive) | > 100 µM (inactive) | > 100 µM (inactive) | > 100 µM (inactive) | > 100 µM (inactive) | > 100 µM (inactive) | > 100 µM (inactive) | > 100 µM (inactive) | > 100 µM (inactive)
COc1c(OC)c(OC)c(C(=O)/C=C/c2ccccc2)c(OC)c1OC | 11.3 µM (inactive) | 7.11 µM (inactive) | 10.3 µM (inactive) | 12.3 µM (inactive) | 8.83 µM (inactive) |  | 12.4 µM (inactive) | 10.1 µM (inactive) | 14.5 µM (inactive) | 10.6 µM | 6.87 µM (inactive) | 12.8 µM (inactive) | 8.91 µM (inactive) | 4.28 µM (inactive) | 14.7 µM (inactive) | 3.69 µM (inactive) | 5.06 µM (inactive) | 5.51 µM (inactive) | 13.9 µM (inactive)
CCOC(=O)Cc1nc2sc(S(N)(=O)=O)nn2c1Br | 28.4 µM (inactive) | 25.5 µM (inactive) | 21.3 µM (inactive) | > 100 µM (inactive) |  | > 100 µM (inactive) | 87.7 µM (inactive) | 29.2 µM (inactive) | 17.6 µM (inactive) | 23.7 µM | 16.6 µM (inactive) | 35.1 µM (inactive) | 32.1 µM (inactive) | 26.5 µM (inactive) | 22.2 µM (inactive) | 56.5 µM (inactive) | 38.7 µM (inactive) | 35.1 µM (inactive) | 17.2 µM (inactive)
CN(C)c1ccc(/C=N/NC(=O)c2cnc3ccccc3c2)cc1 | 51.1 µM (inactive) | > 100 µM (inactive) | 98.2 µM (inactive) | 26.5 µM (inactive) |  | 35.5 µM (inactive) | 48 µM (inactive) | 18.6 µM (inactive) | 37.8 µM (inactive) | > 100 µM | > 100 µM (inactive) | 26.3 µM (inactive) | 21.9 µM (inactive) | > 100 µM (inactive) | 42.1 µM (inactive) | 18 µM (inactive) | 4.03 µM (inactive) | 4.71 µM (inactive) | > 100 µM (inactive)
COC1=C(C)C(=O)C2=C(C1=O)C1C3CC4=C(C(=O)C(OC)=C(C)C4=O)C(CNC(=O)C(C)O)N3C(C#N)C(C2)N1C (stereo not given) | < 0.01 µM (active) | < 0.01 µM (active) | < 0.01 µM (active) | 0.0673 µM (active) | < 0.01 µM (active) | 0.0149 µM (active) | < 0.01 µM (active) | < 0.01 µM (active) | < 0.01 µM (active) | 0.0169 µM | < 0.01 µM (active) | 0.0353 µM (active) | < 0.0104 µM (active) | 0.0107 µM (active) | < 0.0113 µM (active) | < 0.01 µM (active) | < 0.01 µM (active) | < 0.01 µM (active) | 0.037 µM (active)
COC(=O)C1CCC(=O)N1C(c1ccccc1)c1cc(OC)c(OC)c(OC)c1 (stereo not given) | 63.5 µM (inactive) | 29.4 µM (inactive) | > 100 µM (inactive) | > 100 µM (inactive) | 31.8 µM (inactive) | > 100 µM (inactive) | 76.4 µM (inactive) | 61.1 µM (inactive) | 41.3 µM (inactive) | 42.6 µM | 60.5 µM (inactive) | > 100 µM (inactive) |  | 82.4 µM (inactive) | > 100 µM (inactive) | > 100 µM (inactive) | 22.3 µM (inactive) | 21.8 µM (inactive) | 22.3 µM (inactive)
CNC(=S)N/N=C/c1cccc(C)n1 | 44.7 µM (inactive) | > 45.5 µM (inactive) | 23.6 µM (inactive) | 37.2 µM (inactive) | 39.8 µM (inactive) | 20.7 µM (inactive) | 51.9 µM (inactive) | 37.2 µM (inactive) | 39.3 µM (inactive) | 26 µM | 23.6 µM (inactive) | 32.8 µM (inactive) | 37.9 µM (inactive) | 20.7 µM (inactive) | > 54 µM (inactive) | 25.9 µM (inactive) | 45 µM (inactive) | 42 µM (inactive) | 47.6 µM (inactive)
